Broadly, the EC50 is the concentration needed to bring the measured effect to its halfway point. Low readings indicate a more potent agent, high ones a less potent agent.

This is an account of results in patent US12319692B2, “Anti-influenza virus pyrimidine derivatives” (GUANGDONG RAYNOVENT BIOTECH CO., LTD., priority 2016, dated 2025).

Experiment [1] deals with Influenza virus A/Weiss/43 (H1N1). Briefly: Influenza virus cytopathic effect (CPE) experiment in MDCK cells. It is filed as cell-based. To be noted: 120 h, 5 days, CCK8 cell viability. On the technique in general: Cytopathic effects are the visible damage that an infection or toxin causes in cultured cells.
Experiment [2] has as its system influenza A virus H1N1 (H1N1 A/WSN/33). The experiment can be described thus: In vivo pharmacodynamics in mouse infection model of influenza A virus H1N1. To be noted: female BALB/c mice, H1N1 A/WSN/33, 10 mg/kg oral twice a day, day 1 to day 7, first dose 36 hours after infection.

In turn, `CSc1nc(-c2c[nH]c3ncc(F)cc23)nc(N[C@H]2C3CCC(CC3)[C@@H]2C(=O)O)c1F` [WX-139] displayed an EC50 in experiment [1] of 0.02 nM.

Regarding `CCSc1nc(-c2c[nH]c3ncc(F)cc23)nc(N[C@H]2C3CCC(CC3)[C@@H]2C(=O)O)c1F` [WX-156], the response in experiment [1] was half-maximal at 0.01 nM (EC50). Compared with the last compound, the EC50 is about 2-fold lower.

In experiment [1], `CSc1nc(-c2c[nH]c3c(F)cc(F)cc23)nc(N[C@H]2C3CCC(CC3)[C@@H]2C(=O)O)c1F` [WX-160] registered a concentration giving a half-maximal response (EC50) of 0.5 nM. Against the preceding compound, the EC50 is about 50-fold higher.

In experiment [1], `O=C(O)[C@H]1C2CCC(CC2)[C@@H]1Nc1nc(-c2c[nH]c3ncc(F)cc23)nc(-n2ccnc2)c1F` [WX-186] had an EC50 of 0.1 nM.

Regarding `O=C(O)[C@H]1C2CCC(CC2)[C@@H]1Nc1nc(-c2n[nH]c3ncc(F)cc23)nc(C2CC2)c1F` [WX-216], in experiment [2], the “Survival Rate (percentages)” value came to 100% and the “Weight Losing Rate (day 9)” value is reported as 4.8%. In experiment [1], this compound displayed an EC50 of 0.013 nM.

In turn, `O=C(O)[C@H]1C2CCC(CC2)[C@@H]1Nc1nc(-c2c[nH]c3ncc(F)cc23)nc(-c2ccncc2)c1F` [WX-230] yielded an EC50 in experiment [1] of 0.1 nM.

In the case of `Cn1cc(-c2nc(-c3c[nH]c4ncc(F)cc34)nc(N[C@H]3C4CCC(CC4)[C@@H]3C(=O)O)c2F)cn1` [WX-231], in experiment [2], the “Survival Rate (percentages)” value worked out at 100% and the “Weight Losing Rate (day 9)” value is given as 12.9%. Further, the EC50 in experiment [1] is 0.2 nM.

With `O=C(O)[C@H]1C2CCC(CC2)[C@@H]1Nc1nc(-c2c[nH]c3ncc(F)cc23)nc(SCC(F)(F)F)c1F` [WX-234], in experiment [1], the EC50 worked out at 0.1 nM.

Regarding `O=C(O)[C@H]1C2CCC(CC2)[C@@H]1Nc1nc(-c2c[nH]c3ncc(F)cc23)nc(-c2cccs2)c1F` [WX-236], a half-maximal effect in experiment [1] (EC50) was put at 0.01 nM. Compared with the last compound, the EC50 is about 10-fold lower.

On to `O=C(O)[C@H]1C2CCC(CC2)[C@@H]1Nc1nc(-c2c[nH]c3ncc(F)cc23)nc(-c2ccsc2)c1F` [WX-240], for which the EC50 in experiment [1] was 0.03 nM. Against the preceding compound, the EC50 is about 3-fold higher.

In experiment [1], `CC(C)(C)Sc1nc(-c2c[nH]c3ncc(F)cc23)nc(N[C@H]2C3CCC(CC3)[C@@H]2C(=O)O)c1F` [WX-241] had an EC50 of 0.01 nM.

`Cc1noc(C)c1-c1nc(-c2c[nH]c3ncc(F)cc23)nc(N[C@H]2C3CCC(CC3)[C@@H]2C(=O)O)c1F` [WX-245] gave an EC50 in experiment [1] of 4 nM.

As to `Cc1ccc(-c2nc(-c3c[nH]c4ncc(F)cc34)nc(N[C@H]3C4CCC(CC4)[C@@H]3C(=O)O)c2F)s1` [WX-247], in experiment [1], the response was half-maximal at 56.6 nM (EC50).

Regarding `CC(C)C#Cc1nc(-c2c[nH]c3ncc(F)cc23)nc(N[C@H]2C3CCC(CC3)[C@@H]2C(=O)O)c1F` [WX-249], the EC50 in experiment [1] was found to be 0.009 nM.

Turning to `O=C(O)[C@H]1C2CCC(CC2)[C@@H]1Nc1nc(-c2c[nH]c3ncc(F)cc23)nc(-c2cc[nH]n2)c1F` [WX-260], the EC50 in experiment [1] was 1.1 nM.

`CC(C)Sc1nc(-c2c[nH]c3ncc(F)cc23)nc(N[C@H]2C3CCC(CC3)[C@@H]2C(=O)O)c1F` [WX-261]: the EC50 in experiment [1] is 0.018 nM.

For the compound `O=C(O)[C@H]1C2CCC(CC2)[C@@H]1Nc1nc(-c2c[nH]c3ncc(F)cc23)nc(-c2cnn(CCO)c2)c1F` [WX-263], the midpoint of the response in experiment [1], the EC50, lay at 1.5 nM.

In experiment [1], `Cn1cc(-c2nc(-c3n[nH]c4ncc(F)cc34)nc(N[C@H]3C4CCC(CC4)[C@@H]3C(=O)O)c2F)cn1` [WX-264] came in with an EC50 of 0.1 nM.

The compound `O=C(O)[C@H]1C2CCC(CC2)[C@@H]1Nc1nc(-c2n[nH]c3ncc(F)cc23)nc(-c2cn[nH]c2)c1F` [WX-265] displayed an EC50 in experiment [1] of 2.8 nM.

In experiment [1], `O=C(O)[C@H]1C2CCC(CC2)[C@@H]1Nc1nc(-c2n[nH]c3ncc(F)cc23)nc(-c2ccsc2)c1F` [WX-269] came in with an EC50 of 0.019 nM.

In the case of `O=C(O)[C@H]1C2CCC(CC2)[C@@H]1Nc1nc(-c2n[nH]c3ncc(F)cc23)nc(-c2cccs2)c1F` [WX-271], the EC50 in experiment [1] stood at 0.057 nM.

With `CC(C)(C)Sc1nc(-c2n[nH]c3ncc(F)cc23)nc(N[C@H]2C3CCC(CC3)[C@@H]2C(=O)O)c1F` [WX-274], in experiment [1], the EC50 was 0.1 nM.

For the compound `CC(C)(C)C#Cc1nc(-c2c[nH]c3ncc(F)cc23)nc(N[C@H]2C3CCC(CC3)[C@@H]2C(=O)O)c1F` [WX-275], the EC50 in experiment [1] is 0.009 nM.

Consider `CSc1nc(-c2nc(-c3c[nH]c4ncc(F)cc34)nc(N[C@H]3C4CCC(CC4)[C@@H]3C(=O)O)c2F)c[nH]1` [WX-276], for which, in experiment [1], a half-maximal response (EC50) required 3.6 nM.

Regarding `O=C(O)c1ccc(-c2nc(-c3c[nH]c4ncc(F)cc34)nc(N[C@H]3C4CCC(CC4)[C@@H]3C(=O)O)c2F)s1` [WX-278], it took 2.7 nM to reach a half-maximal effect in experiment [1] (EC50).

On to `CN(C)Cc1ccc(-c2nc(-c3c[nH]c4ncc(F)cc34)nc(N[C@H]3C4CCC(CC4)[C@@H]3C(=O)O)c2F)s1` [WX-279], for which, in experiment [2], the “Survival Rate (percentages)” value is recorded as 100% and the “Weight Losing Rate (day 9)” value came out at 28.7%. In addition, the EC50 in experiment [1] was determined as 0.025 nM.

On to `Cn1cc(-c2nc(-c3n[nH]c4ncc(C(F)(F)F)cc34)nc(N[C@H]3C4CCC(CC4)[C@@H]3C(=O)O)c2F)cn1` [WX-280], for which the EC50 in experiment [1] is 0.055 nM.

In experiment [1], `O=C(O)[C@H]1C2CCC(CC2)[C@@H]1Nc1nc(-c2c[nH]c3ncc(F)cc23)nc(-c2cnn(C3CC3)c2)c1F` [WX-281] displayed an EC50 of 0.026 nM.

Compound `COCCn1cc(-c2nc(-c3c[nH]c4ncc(F)cc34)nc(N[C@H]3C4CCC(CC4)[C@@H]3C(=O)O)c2F)cn1` [WX-283] displayed an EC50 in experiment [1] of 0.4 nM.

On to `CC(C)(C(=O)O)n1cc(-c2nc(-c3c[nH]c4ncc(F)cc34)nc(N[C@H]3C4CCC(CC4)[C@@H]3C(=O)O)c2F)cn1` [WX-284], for which, in experiment [1], the response was half-maximal at 10 nM (EC50).

In experiment [1], `Cc1csc(-c2nc(-c3c[nH]c4ncc(F)cc34)nc(N[C@H]3C4CCC(CC4)[C@@H]3C(=O)O)c2F)c1` [WX-285] yielded an EC50 of 32 nM. This EC50 lies about 3.2-fold higher than the previous one.

As for `CC(C)(C(N)=O)n1cc(-c2nc(-c3c[nH]c4ncc(F)cc34)nc(N[C@H]3C4CCC(CC4)[C@@H]3C(=O)O)c2F)cn1` [WX-286], the EC50 in experiment [1] was found to be 3.7 nM.

Regarding `CN1CCN(C(=O)c2ccc(-c3nc(-c4c[nH]c5ncc(F)cc45)nc(N[C@H]4C5CCC(CC5)[C@@H]4C(=O)O)c3F)s2)CC1` [WX-288], the half-maximal effective concentration (EC50) in experiment [1] came to 2.3 nM.

Consider `CN1CCN(Cc2ccc(-c3nc(-c4c[nH]c5ncc(F)cc45)nc(N[C@H]4C5CCC(CC5)[C@@H]4C(=O)O)c3F)s2)CC1` [WX-289], for which the midpoint of the response in experiment [1], the EC50, lay at 0.1 nM.

Turning to `O=C(O)[C@H]1C2CCC(CC2)[C@@H]1Nc1nc(-c2c[nH]c3ncc(F)cc23)nc(-c2ccc(CN3CCOCC3)s2)c1F` [WX-290], in experiment [2], the “Survival Rate (percentages)” value is 40% and the “Weight Losing Rate (day 9)” value came out at 27.6%. Moreover, in experiment [1], the response was half-maximal at 0.041 nM (EC50).

`CN1CC(n2cc(-c3nc(-c4c[nH]c5ncc(F)cc45)nc(N[C@H]4C5CCC(CC5)[C@@H]4C(=O)O)c3F)cn2)C1` [WX-293] yielded an EC50 in experiment [1] of 8 nM.

Compound `CCn1cc(-c2nc(-c3c[nH]c4ncc(F)cc34)nc(N[C@H]3C4CCC(CC4)[C@@H]3C(=O)O)c2F)cn1` [WX-294] had an EC50 in experiment [1] of 0.1 nM.

Turning to `CN(C)Cc1cc(-c2nc(-c3c[nH]c4ncc(F)cc34)nc(N[C@H]3C4CCC(CC4)[C@@H]3C(=O)O)c2F)cs1` [WX-295], the EC50 in experiment [1] came to 0.013 nM.

`N#CCn1cc(-c2nc(-c3c[nH]c4ncc(F)cc34)nc(N[C@H]3C4CCC(CC4)[C@@H]3C(=O)O)c2F)cn1` [WX-296] returned an EC50 in experiment [1] of 1 nM.

Regarding `O=C(O)[C@H]1C2CCC(CC2)[C@@H]1Nc1nc(-c2n[nH]c3ncc(F)cc23)nc(C2CC2(F)F)c1F` (stereo partly drawn) [WX-297], in experiment [2], the “Survival Rate (percentages)” value is 100% and the “Weight Losing Rate (day 9)” value is listed as 27.3%. Further, the EC50 in experiment [1] came out at 0.024 nM.

Consider `O=C(O)[C@H]1C2CCC(CC2)[C@@H]1Nc1nc(-c2c[nH]c3ncc(F)cc23)nc(-c2ccc(Cl)s2)c1F` [WX-298], for which, in experiment [1], a half-maximal effect (EC50) was put at 6.7 nM. That is a single-digit nanomolar value.

Take `CC1(c2nc(-c3n[nH]c4ncc(F)cc34)nc(N[C@H]3C4CCC(CC4)[C@@H]3C(=O)O)c2F)CC1` [WX-351]: the “Weight Losing Rate (day 9)” value in experiment [2] is given as 35.3%. Moreover, the EC50 in experiment [1] came out at 0.2 nM.

For the compound `O=C(O)[C@H]1C2CCC(CC2)[C@@H]1Nc1nc(-c2c[nH]c3ncc(F)cc23)nc(-c2ccn(C(F)F)n2)c1F` [WX-352], the response in experiment [1] was half-maximal at 0.046 nM (EC50).

`O=C(O)[C@H]1C2CCC(CC2)[C@@H]1Nc1nc(-c2n[nH]c3ncc(F)cc23)nc(C2CC2F)c1F` (stereo partly drawn) [WX-353] displayed an EC50 in experiment [1] of 0.039 nM.

Compound `NC1(c2nc(-c3n[nH]c4ncc(F)cc34)nc(N[C@H]3C4CCC(CC4)[C@@H]3C(=O)O)c2F)CC1` [WX-354] showed an EC50 in experiment [1] of 4.4 nM. This EC50 is about 110-fold higher than that of the compound before.

The compound `O=C(O)[C@H]1C2CCC(CC2)[C@@H]1Nc1nc(-c2n[nH]c3ncc(F)cc23)nc(C2(F)CC2)c1F` [WX-355] displayed an EC50 in experiment [1] of 0.04 nM.

Regarding `N#CC1(c2nc(-c3n[nH]c4ncc(F)cc34)nc(N[C@H]3C4CCC(CC4)[C@@H]3C(=O)O)c2F)CC1` [WX-358], in experiment [1], the EC50 is 0.6 nM. Against the preceding compound, the EC50 is about 15-fold higher.

With `N#C[C@H]1C[C@@H]1c1nc(-c2n[nH]c3ncc(F)cc23)nc(N[C@H]2C3CCC(CC3)[C@@H]2C(=O)O)c1F` [WX-359], in experiment [1], the EC50 turned out to be 0.09 nM.

Compound `N#C[C@@H]1C[C@H]1c1nc(-c2n[nH]c3ncc(F)cc23)nc(N[C@H]2C3CCC(CC3)[C@@H]2C(=O)O)c1F` [WX-360] showed an EC50 in experiment [1] of 0.2 nM.
